ChEMBL document CHEMBL4196079, “Molecular interaction of novel benzothiazolyl triazolium analogues with calf thymus DNA and HSA-their biological investigation as potent antimicrobial agents” (Eur J Med Chem, 2018)
≈ marks a conversion by molar mass, not a printed value.

How the values were obtained:
Candida albicans = assay: Antifungal activity against Candida albicans ATCC 76615 after 24 hrs by NCCLS micro broth dilution method; format: functional; conditions: ATCC 76615, 24 h
Pseudomonas aeruginosa = assay: Antibacterial activity against Pseudomonas aeruginosa ATCC 27853 after 24 hrs by NCCLS micro broth dilution method; format: functional; conditions: ATCC 27853, 24 h
Cyberlindnera jadinii = assay: Antifungal activity against Candida utilis after 24 hrs by NCCLS micro broth dilution method; format: functional; conditions: Williopsis jadinii
Bacillus = assay: Antibacterial activity against Bacillus proteus ATCC 13315 after 24 hrs by NCCLS micro broth dilution method; format: functional; conditions: ATCC 13315, 24 h
Aspergillus flavus = assay: Antifungal activity against Aspergillus flavus after 24 hrs by NCCLS micro broth dilution method; format: functional
Micrococcus luteus = assay: Antibacterial activity against Micrococcus luteus ATCC 4698 after 24 hrs by micro broth dilution method; format: functional; conditions: ATCC 4698, 24 h
Escherichia coli [1] = assay: Antibacterial activity against Escherichia coli DH52 after 24 hrs by NCCLS micro broth dilution method; format: functional; conditions: DH52, 24 h
Salmonella typhi = assay: Antibacterial activity against Salmonella typhi after 24 hrs by NCCLS micro broth dilution method; format: functional, Salmonella enterica subsp. enterica serovar Typhi; conditions: Salmonella enterica
Staphylococcus aureus [2] = assay: Antibacterial activity against Staphylococcus aureus ATCC 25923 after 24 hrs by NCCLS micro broth dilution method; format: functional; conditions: ATCC 25923, 24 h
Staphylococcus aureus [3] = assay: Antibacterial activity against methicillin-resistant Staphylococcus aureus N315 after 24 hrs by NCCLS micro broth dilution method; format: functional; conditions: N315, 24 h
Escherichia coli [4] = assay: Antibacterial activity against Escherichia coli JM109 after 24 hrs by NCCLS micro broth dilution method; format: functional; conditions: JM109, 24 h
Shigella dysenteriae = assay: Antibacterial activity against Shigella dysenteriae after 24 hrs by NCCLS micro broth dilution method; format: functional
Bacillus subtilis = assay: Antibacterial activity against Bacillus subtilis ATCC 21216 after 24 hrs by NCCLS micro broth dilution method; format: functional; conditions: ATCC 21216, 24 h
Saccharomyces cerevisiae = assay: Antifungal activity against Saccharomyces cerevisiae after 24 hrs by NCCLS micro broth dilution method; format: functional
Pichia norvegensis = assay: Antifungal activity against Candida mycoderma after 24 hrs by NCCLS micro broth dilution method; format: functional

CCOc1ccc2c(c1)sc1nc(-c3ccccc3)c(COCc3cn(Cc4cccc(Cl)c4)nn3)n12
MIC (Candida albicans): 32 µg/mL (≈ 60.4 µM) | MIC (Pseudomonas aeruginosa): 64 µg/mL (≈ 121 µM) | MIC (Cyberlindnera jadinii): 32 µg/mL (≈ 60.4 µM) | MIC (Bacillus): 512 µg/mL (≈ 966 µM) | MIC (Aspergillus flavus): 128 µg/mL (≈ 241 µM) | MIC (Micrococcus luteus): 128 µg/mL (≈ 241 µM) | MIC (Escherichia coli [1]): 64 µg/mL (≈ 121 µM) | MIC (Salmonella typhi): 16 µg/mL (≈ 30.2 µM) | MIC (Staphylococcus aureus [2]): 128 µg/mL (≈ 241 µM) | MIC (Staphylococcus aureus [3]): 128 µg/mL (≈ 241 µM) | MIC (Escherichia coli [4]): 128 µg/mL (≈ 241 µM) | MIC (Shigella dysenteriae): 64 µg/mL (≈ 121 µM) | MIC (Bacillus subtilis): 64 µg/mL (≈ 121 µM) | MIC (Saccharomyces cerevisiae): 64 µg/mL (≈ 121 µM) | MIC (Pichia norvegensis): 32 µg/mL (≈ 60.4 µM)

Clc1ccc(Cn2cc(COCc3c(-c4ccccc4)nc4sc5ccccc5n34)nn2)cc1
MIC (Candida albicans): 32 µg/mL (≈ 65.8 µM) | MIC (Pseudomonas aeruginosa): 128 µg/mL (≈ 263 µM) | MIC (Cyberlindnera jadinii): 64 µg/mL (≈ 132 µM) | MIC (Bacillus): 64 µg/mL (≈ 132 µM) | MIC (Aspergillus flavus): 256 µg/mL (≈ 527 µM) | MIC (Micrococcus luteus): 64 µg/mL (≈ 132 µM) | MIC (Escherichia coli [1]): 64 µg/mL (≈ 132 µM) | MIC (Salmonella typhi): 64 µg/mL (≈ 132 µM) | MIC (Staphylococcus aureus [2]): 64 µg/mL (≈ 132 µM) | MIC (Staphylococcus aureus [3]): 64 µg/mL (≈ 132 µM) | MIC (Escherichia coli [4]): 128 µg/mL (≈ 263 µM) | MIC (Shigella dysenteriae): 128 µg/mL (≈ 263 µM) | MIC (Bacillus subtilis): 128 µg/mL (≈ 263 µM) | MIC (Saccharomyces cerevisiae): 16 µg/mL (≈ 32.9 µM) | MIC (Pichia norvegensis): 32 µg/mL (≈ 65.8 µM)

Fc1ccccc1Cn1cc(COCc2c(-c3ccccc3)nc3sc4ccccc4n23)nn1
MIC (Candida albicans): 32 µg/mL (≈ 68.2 µM) | MIC (Pseudomonas aeruginosa): 128 µg/mL (≈ 273 µM) | MIC (Cyberlindnera jadinii): 16 µg/mL (≈ 34.1 µM) | MIC (Bacillus): 128 µg/mL (≈ 273 µM) | MIC (Aspergillus flavus): 128 µg/mL (≈ 273 µM) | MIC (Micrococcus luteus): 64 µg/mL (≈ 136 µM) | MIC (Escherichia coli [1]): 128 µg/mL (≈ 273 µM) | MIC (Salmonella typhi): 64 µg/mL (≈ 136 µM) | MIC (Staphylococcus aureus [2]): 64 µg/mL (≈ 136 µM) | MIC (Staphylococcus aureus [3]): 32 µg/mL (≈ 68.2 µM) | MIC (Escherichia coli [4]): 128 µg/mL (≈ 273 µM) | MIC (Shigella dysenteriae): 128 µg/mL (≈ 273 µM) | MIC (Bacillus subtilis): 128 µg/mL (≈ 273 µM) | MIC (Saccharomyces cerevisiae): 64 µg/mL (≈ 136 µM) | MIC (Pichia norvegensis): 16 µg/mL (≈ 34.1 µM)

CCOc1ccc2c(c1)sc1nc(-c3ccccc3)c(COCc3cn(Cc4ccc(Cl)cc4Cl)nn3)n12
MIC (Candida albicans): 1 µg/mL (≈ 1.77 µM) | MIC (Pseudomonas aeruginosa): 32 µg/mL (≈ 56.7 µM) | MIC (Cyberlindnera jadinii): 8 µg/mL (≈ 14.2 µM) | MIC (Bacillus): 16 µg/mL (≈ 28.3 µM) | MIC (Aspergillus flavus): 64 µg/mL (≈ 113 µM) | MIC (Micrococcus luteus): 64 µg/mL (≈ 113 µM) | MIC (Escherichia coli [1]): 64 µg/mL (≈ 113 µM) | MIC (Salmonella typhi): 64 µg/mL (≈ 113 µM) | MIC (Staphylococcus aureus [2]): 64 µg/mL (≈ 113 µM) | MIC (Staphylococcus aureus [3]): 64 µg/mL (≈ 113 µM) | MIC (Escherichia coli [4]): 64 µg/mL (≈ 113 µM) | MIC (Shigella dysenteriae): 32 µg/mL (≈ 56.7 µM) | MIC (Bacillus subtilis): 32 µg/mL (≈ 56.7 µM) | MIC (Saccharomyces cerevisiae): 32 µg/mL (≈ 56.7 µM) | MIC (Pichia norvegensis): 4 µg/mL (≈ 7.09 µM)

Clc1ccccc1Cn1cc(COCc2c(-c3ccccc3)nc3sc4ccccc4n23)nn1
MIC (Candida albicans): 16 µg/mL (≈ 32.9 µM) | MIC (Pseudomonas aeruginosa): 128 µg/mL (≈ 263 µM) | MIC (Cyberlindnera jadinii): 64 µg/mL (≈ 132 µM) | MIC (Bacillus): 64 µg/mL (≈ 132 µM) | MIC (Aspergillus flavus): 128 µg/mL (≈ 263 µM) | MIC (Micrococcus luteus): 128 µg/mL (≈ 263 µM) | MIC (Escherichia coli [1]): 128 µg/mL (≈ 263 µM) | MIC (Salmonella typhi): 64 µg/mL (≈ 132 µM) | MIC (Staphylococcus aureus [2]): 64 µg/mL (≈ 132 µM) | MIC (Staphylococcus aureus [3]): 64 µg/mL (≈ 132 µM) | MIC (Escherichia coli [4]): 8 µg/mL (≈ 16.5 µM) | MIC (Shigella dysenteriae): 64 µg/mL (≈ 132 µM) | MIC (Bacillus subtilis): 128 µg/mL (≈ 263 µM) | MIC (Saccharomyces cerevisiae): 64 µg/mL (≈ 132 µM) | MIC (Pichia norvegensis): 8 µg/mL (≈ 16.5 µM)

CCOc1ccc2c(c1)sc1nc(-c3ccccc3)c(COCc3cn(Cc4ccccc4Cl)nn3)n12
MIC (Candida albicans): 8 µg/mL (≈ 15.1 µM) | MIC (Pseudomonas aeruginosa): 64 µg/mL (≈ 121 µM) | MIC (Cyberlindnera jadinii): 32 µg/mL (≈ 60.4 µM) | MIC (Bacillus): 512 µg/mL (≈ 966 µM) | MIC (Aspergillus flavus): 128 µg/mL (≈ 241 µM) | MIC (Micrococcus luteus): 128 µg/mL (≈ 241 µM) | MIC (Escherichia coli [1]): 128 µg/mL (≈ 241 µM) | MIC (Salmonella typhi): 16 µg/mL (≈ 30.2 µM) | MIC (Staphylococcus aureus [2]): 64 µg/mL (≈ 121 µM) | MIC (Staphylococcus aureus [3]): 128 µg/mL (≈ 241 µM) | MIC (Escherichia coli [4]): 128 µg/mL (≈ 241 µM) | MIC (Shigella dysenteriae): 128 µg/mL (≈ 241 µM) | MIC (Bacillus subtilis): 128 µg/mL (≈ 241 µM) | MIC (Saccharomyces cerevisiae): 64 µg/mL (≈ 121 µM) | MIC (Pichia norvegensis): 32 µg/mL (≈ 60.4 µM)

Fc1ccc(Cn2cc(COCc3c(-c4ccccc4)nc4sc5ccccc5n34)nn2)cc1
MIC (Candida albicans): 32 µg/mL (≈ 68.2 µM) | MIC (Pseudomonas aeruginosa): 128 µg/mL (≈ 273 µM) | MIC (Cyberlindnera jadinii): 16 µg/mL (≈ 34.1 µM) | MIC (Bacillus): 128 µg/mL (≈ 273 µM) | MIC (Aspergillus flavus): 256 µg/mL (≈ 545 µM) | MIC (Micrococcus luteus): 128 µg/mL (≈ 273 µM) | MIC (Escherichia coli [1]): 128 µg/mL (≈ 273 µM) | MIC (Salmonella typhi): 128 µg/mL (≈ 273 µM) | MIC (Staphylococcus aureus [2]): 128 µg/mL (≈ 273 µM) | MIC (Staphylococcus aureus [3]): 64 µg/mL (≈ 136 µM) | MIC (Escherichia coli [4]): 128 µg/mL (≈ 273 µM) | MIC (Shigella dysenteriae): 128 µg/mL (≈ 273 µM) | MIC (Bacillus subtilis): 128 µg/mL (≈ 273 µM) | MIC (Saccharomyces cerevisiae): 64 µg/mL (≈ 136 µM) | MIC (Pichia norvegensis): 32 µg/mL (≈ 68.2 µM)

OC(Cn1cncn1)(Cn1cncn1)c1ccc(F)cc1F [FLUCONAZOLE]
MIC (Candida albicans): 1 µg/mL (≈ 3.27 µM) | MIC (Cyberlindnera jadinii): 8 µg/mL (≈ 26.1 µM) | MIC (Aspergillus flavus): 256 µg/mL (≈ 836 µM) | MIC (Saccharomyces cerevisiae): 16 µg/mL (≈ 52.2 µM) | MIC (Pichia norvegensis): 4 µg/mL (≈ 13.1 µM)

O=[N+]([O-])c1ccc(Cn2cc(COCc3c(-c4ccccc4)nc4sc5ccccc5n34)nn2)cc1
MIC (Candida albicans): 32 µg/mL (≈ 64.4 µM) | MIC (Pseudomonas aeruginosa): 64 µg/mL (≈ 129 µM) | MIC (Cyberlindnera jadinii): 32 µg/mL (≈ 64.4 µM) | MIC (Bacillus): 32 µg/mL (≈ 64.4 µM) | MIC (Aspergillus flavus): 256 µg/mL (≈ 516 µM) | MIC (Micrococcus luteus): 64 µg/mL (≈ 129 µM) | MIC (Escherichia coli [1]): 16 µg/mL (≈ 32.2 µM) | MIC (Salmonella typhi): 8 µg/mL (≈ 16.1 µM) | MIC (Staphylococcus aureus [2]): 32 µg/mL (≈ 64.4 µM) | MIC (Staphylococcus aureus [3]): 32 µg/mL (≈ 64.4 µM) | MIC (Escherichia coli [4]): 4 µg/mL (≈ 8.06 µM) | MIC (Shigella dysenteriae): 32 µg/mL (≈ 64.4 µM) | MIC (Bacillus subtilis): 64 µg/mL (≈ 129 µM) | MIC (Saccharomyces cerevisiae): 32 µg/mL (≈ 64.4 µM) | MIC (Pichia norvegensis): 32 µg/mL (≈ 64.4 µM)

Fc1cccc(Cn2cc(COCc3c(-c4ccccc4)nc4sc5ccccc5n34)nn2)c1
MIC (Candida albicans): 16 µg/mL (≈ 34.1 µM) | MIC (Pseudomonas aeruginosa): 128 µg/mL (≈ 273 µM) | MIC (Cyberlindnera jadinii): 8 µg/mL (≈ 17 µM) | MIC (Bacillus): 64 µg/mL (≈ 136 µM) | MIC (Aspergillus flavus): 128 µg/mL (≈ 273 µM) | MIC (Micrococcus luteus): 128 µg/mL (≈ 273 µM) | MIC (Escherichia coli [1]): 32 µg/mL (≈ 68.2 µM) | MIC (Salmonella typhi): 128 µg/mL (≈ 273 µM) | MIC (Staphylococcus aureus [2]): 128 µg/mL (≈ 273 µM) | MIC (Staphylococcus aureus [3]): 16 µg/mL (≈ 34.1 µM) | MIC (Escherichia coli [4]): 16 µg/mL (≈ 34.1 µM) | MIC (Shigella dysenteriae): 128 µg/mL (≈ 273 µM) | MIC (Bacillus subtilis): 64 µg/mL (≈ 136 µM) | MIC (Saccharomyces cerevisiae): 32 µg/mL (≈ 68.2 µM) | MIC (Pichia norvegensis): 8 µg/mL (≈ 17 µM)
